Measured values taken from patent US9499553B2 (CHUGAI SEIYAKU KABUSHIKI KAISHA, priority 2013, dated 2016).
Structures can show the parent of a compound that is named as a salt. Where two headings read alike, the source gives them in different places.

Assays:
human NaPi-IIb = target: T1, human NaPi-IIb (Homo sapiens, UniProt O95436); experiment: Inhibitory effect on 33PO4 uptake into human NaPi-IIb-expressing CHO cells; format: cell-based
T1 construct: expressed in transfected cells
T1 sequence (O95436 1-690): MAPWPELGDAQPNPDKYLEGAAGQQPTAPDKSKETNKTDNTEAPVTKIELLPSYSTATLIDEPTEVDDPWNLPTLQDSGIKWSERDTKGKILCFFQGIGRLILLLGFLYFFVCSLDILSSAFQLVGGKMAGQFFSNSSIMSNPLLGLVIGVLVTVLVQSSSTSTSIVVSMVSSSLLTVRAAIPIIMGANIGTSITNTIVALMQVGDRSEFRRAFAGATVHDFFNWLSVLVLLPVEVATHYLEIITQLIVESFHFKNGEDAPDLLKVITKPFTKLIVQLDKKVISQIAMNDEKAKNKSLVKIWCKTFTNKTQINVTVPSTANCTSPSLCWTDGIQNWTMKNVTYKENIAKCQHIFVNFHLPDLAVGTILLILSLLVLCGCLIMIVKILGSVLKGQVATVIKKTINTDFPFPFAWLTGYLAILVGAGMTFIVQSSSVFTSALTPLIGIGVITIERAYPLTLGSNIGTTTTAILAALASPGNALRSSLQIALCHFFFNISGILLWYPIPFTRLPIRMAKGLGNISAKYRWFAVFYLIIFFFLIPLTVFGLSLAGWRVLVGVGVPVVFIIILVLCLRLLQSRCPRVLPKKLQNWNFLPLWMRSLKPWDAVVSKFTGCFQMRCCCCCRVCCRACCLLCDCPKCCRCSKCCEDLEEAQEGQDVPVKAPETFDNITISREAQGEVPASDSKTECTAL
How it was run: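 Stable human NaPi-IIb CHO line (G418-selected), plated and cultured overnight; ³³PO4 added in buffer A and uptake run at room temperature. Cells washed with ice-cold buffer A, then uptake counted by liquid scintillation.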

[1] = system: rat small-intestinal brush border membrane vesicles; experiment: Inhibitory effect on 33PO4 uptake into rat small-intestinal brush border membrane vesicles (rapid filtration method); format: biochemical; conditions: 1 μM test compound; 33PO4 uptake into rat small-intestinal BBMVs, reacted for 60 seconds
Protocol: Test Example 1: Inhibitory Effect on ^33PO4 Uptake into Rat Small-Intestinal Brush Border Membrane Vesicles Brush border membrane vesicles (BBMVs) were prepared using the upper region of the small intestine of each Wistar female rat (4-5 weeks old). The preparation of BBMVs was performed according to the method of Murer et al. (Murer […]. Sodium/proton antiport in brush-border-membrane vesicles isolated from rat small intestine and kidney. 1976. J Am Soc Nephrol. 1998 January; 9 (1): 143-50). The ^33PO4 transport activity of the small-intestinal BBMVs was determined by the rapid filtration method. […] Then, ice-cold buffer C (110 mM NaCl, 1 mM KH2PO4, and 10 mM HEPES (pH 7.5)) was added to each reaction mixture, which was immediately suction-filtered through a Millipore filter. The filter was washed with buffer C, and each sample was then dissolved in a liquid scintillator. The amount of ^33PO4 uptake into BBMVs was measured using a liquid scintillation counter.

SMILES	IC50 (human NaPi-IIb; read-out: IC50) [µM]	IC50 (human NaPi-IIb; read-out: IC50 against 33PO4 uptake into human NaPi-IIb-expressing cells) [µM]	Rate of uptake inhibition (%) (1 μM) [1]
CN1N(Cc2ccc(OCC[N+]34CCN(CC3)CC4)c(F)c2F)C(=O)C(C(=O)Nc2ccc(C(F)(F)F)cc2-c2cc(C(F)(F)F)ncn2)=C(O)C12CCCC2 [Example 415, 1-(2-(2,3-Difluoro-4-((10-hydroxy-6-methyl-8-oxo-9-((4-(trifluoromethyl)-2-(6-(trifluoromethyl)pyrimidin-4-yl)phenyl)carbamoyl)-6,7-diazaspiro[4.5]dec-9-en-7-yl)methyl)phenoxy)ethyl)-1,4-diazabicyclo[2.2.2]octan-1-ium formate]		18.5	21
CSc1ncc(-c2nc(C(F)(F)F)ccc2NC(=O)C2=C(O)[C@@]3(C)CCCN3N(Cc3cccc(F)c3F)C2=O)cn1 [Example 54]	2.3		72
COc1nc(C#N)ncc1-c1cc(C(F)(F)F)ccc1NC(=O)C1=C(O)[C@@]2(C)CCCN2N(Cc2ccc(OCCN3CCOCC3)c(F)c2F)C1=O [Example 55]	15.3		85
CSc1ccc(-c2cc(C(F)(F)F)ccc2NC(=O)C2=C(O)[C@@]3(C)CCCN3N(Cc3cccc(F)c3F)C2=O)cn1 [Example 97]	2.7		89
Cc1c(-c2cc(C(F)(F)F)ccc2NC(=O)C2=C(O)[C@@]3(C)CCCN3N(Cc3cccc(F)c3F)C2=O)ccnc1Cl [Example 47]	7.1		91
C[C@]12CCCN1N(Cc1cccc(F)c1Br)C(=O)C(C(=O)Nc1ccc(Br)c(F)c1)=C2O [Example 37]	3.7		89
Cc1cc(S(=O)(=O)N(C)C)ccc1-c1cc(C(F)(F)F)ccc1NC(=O)C1=C(O)[C@@]2(C)CCCN2N(Cc2cccc(F)c2F)C1=O [Example 50]	8.3		79
C[C@]12CCCN1N(Cc1cccc(F)c1F)C(=O)C(C(=O)Nc1ccc(C(F)(F)F)cc1-c1cccc(C#N)c1F)=C2O [Example 46]	14.1		71
Cc1nc(NC(=O)C2=C(O)[C@@]3(C)CCCN3N(Cc3cccc(F)c3Br)C2=O)ccc1Br [Example 39]	8.5		90
COC(=O)c1cc(-c2cc(C(F)(F)F)ccc2NC(=O)C2=C(O)[C@@]3(C)CCCN3N(Cc3cccc(F)c3F)C2=O)nc(Cl)n1 [Example 98]	10.6		53
CSc1ncc(-c2cc(C(F)(F)F)ccc2NC(=O)C2=C(O)[C@@]3(C)CCC(C)(C)N3N(Cc3cccc(F)c3F)C2=O)cn1 [Example 62]	6.4		73
COc1cccc(-c2cc(C(F)(F)F)ccc2NC(=O)C2=C(O)[C@@]3(C)CCCN3N(Cc3cccc(F)c3F)C2=O)c1OC [Example 44]			94
COc1ccc(CN2C(=O)C(C(=O)Nc3cc(F)c(Br)c(F)c3)=C(O)[C@@]3(C)CCCN23)c(OC)c1 [Example 58]			46
C[C@]12CCCN1N(Cc1cccc(F)c1F)C(=O)C(C(=O)Nc1ccc(C(F)(F)F)cc1-c1ccc(C#N)nc1)=C2O [Example 94]	8.8		73
CSc1ncc(-c2cc(C(F)(F)F)ccc2NC(=O)C2=C(O)[C@@]3(C)CCCN3N(Cc3cccc(F)c3F)C2=O)cn1 [Example 96]	2.8		83
C[C@]12CCCN1N(Cc1cccc(F)c1F)C(=O)C(C(=O)Nc1ccc(Br)c(Cl)c1)=C2O [Example 31]			76
C[C@]12CCCN1N(Cc1ccc(OCCN3CCOCC3)c(F)c1F)C(=O)C(C(=O)Nc1ccc(C(F)(F)F)nc1-c1ccc(OC(F)(F)F)cc1)=C2O [Example 60]	8.8		78
C[C@]12CCCN1N(Cc1cccc(F)c1Br)C(=O)C(C(=O)Nc1ccc(Cl)cc1F)=C2O [Example 38]	6.7		90
COc1c(Cl)ncnc1-c1cc(C(F)(F)F)ccc1NC(=O)C1=C(O)[C@@]2(C)CCCN2N(Cc2cccc(F)c2F)C1=O [Example 49]	12.9		85
C[C@]12CCCN1N(Cc1cccc(F)c1Br)C(=O)C(C(=O)Nc1cccc(Cl)c1F)=C2O [Example 43]	8.3		79
C[C@]12CCCN1N(Cc1cccc(F)c1Br)C(=O)C(C(=O)Nc1ccc(Br)c(C#N)c1)=C2O [Example 40]	6.5		87
C[C@]12CCCN1N(Cc1cccc(F)c1F)C(=O)C(C(=O)Nc1ccc(Br)c(C(F)(F)F)c1)=C2O [Example 30]	2.3		71
C[C@]12CCCN1N(Cc1cccc(F)c1F)C(=O)C(C(=O)Nc1ccc(C(F)(F)F)cc1-c1cnc(C#N)cn1)=C2O [Example 57]	10.3		71
C[C@]12CCCN1N(Cc1cccc(F)c1F)C(=O)C(C(=O)Nc1ccc(Br)c(F)c1F)=C2O [Example 32]	2.8		73
C[C@]12CCCN1N(Cc1cccc(F)c1F)C(=O)C(C(=O)Nc1ccc(C(F)(F)F)cc1-c1cc(C#N)ccn1)=C2O [Example 45]	13		73
C[C@]12CCCN1N(Cc1cccc(F)c1F)C(=O)C(C(=O)Nc1ccc(C(F)(F)F)cc1-c1cnc(C#N)nc1)=C2O [Example 95]	5.4		80

Continued by falling IC50 (human NaPi-IIb; read-out: IC50), values first:

IC50 (human NaPi-IIb; read-out: IC50) [µM]	SMILES	IC50 (human NaPi-IIb; read-out: IC50 against 33PO4 uptake into human NaPi-IIb-expressing cells) [µM]	Rate of uptake inhibition (%) (1 μM) [1]
16.3	C[C@]12CCCN1N(Cc1cccc(F)c1F)C(=O)C(C(=O)Nc1ccc(C(F)(F)F)cc1-c1cccc(F)c1C#N)=C2O [Example 48]		87
16	C[C@]12CCCN1N(Cc1cccc(C#N)c1)C(=O)C(C(=O)Nc1ccc(C(F)(F)F)cc1-c1cnc(Cl)c(C#N)c1)=C2O [Example 51]		72
12.6	C[C@]12CCCN1N(Cc1cccc(F)c1)C(=O)C(C(=O)Nc1ccc(Br)c(F)c1)=C2O [Example 35]		79
9.5	C[C@]12CCCN1N(Cc1ccc(OCCN3CCOCC3)c(F)c1F)C(=O)C(C(=O)Nc1ccc(C(F)(F)F)cc1-c1ncnc(C#N)c1Cl)=C2O [Example 53]		72
7.4	C[C@]12CCCN1N(Cc1ccc(OCCN3CCOCC3)c(F)c1F)C(=O)C(C(=O)Nc1ccc(C(F)(F)F)nc1-c1ccccc1OC(F)(F)F)=C2O [Example 59]		84
7.2	COc1nc(C#N)ncc1-c1cc(C(F)(F)F)ccc1NC(=O)C1=C(O)[C@@]2(C)CCCN2N(Cc2cccc(F)c2F)C1=O [Example 56]		88
7	C[C@]12CCCN1N(Cc1cccc(F)c1)C(=O)C(C(=O)Nc1ccc(C(F)(F)F)cc1-c1cc(C(F)(F)F)ncn1)=C2O [Example 34]		99
6.6	C[C@]12CCCN1N(Cc1cccc(F)c1Br)C(=O)C(C(=O)Nc1ccc(Br)c(Cl)c1)=C2O [Example 41]		84
6.1	C[C@]12CCCN1N(Cc1cccc(F)c1)C(=O)C(C(=O)Nc1cc(F)c(Br)c(F)c1)=C2O [Example 36]		80
6	C[C@]12CCCN1N(Cc1cccc(F)c1F)C(=O)C(C(=O)Nc1cc(Br)c(Br)cc1F)=C2O [Example 33]		77
5.6	CC1(C)CC[C@]2(C)C(O)=C(C(=O)Nc3ccc(C(F)(F)F)cc3-c3ccc(C(F)(F)F)nc3)C(=O)N(Cc3cccc(F)c3F)N12 [Example 61]		71
5	C[C@]12CCCN1N(Cc1cccc(F)c1Br)C(=O)C(C(=O)Nc1ccc(Br)c(C(F)(F)F)c1)=C2O [Example 42]		67
